“Also recorded” adds a separate entry of the source. Structures can show the parent of a compound that is named as a salt.
Tests used:
lace shrub = experiment: Experiment 3 foliar application to naturally growing shrubs; type: in vivo, Stephanandra incisa Zabel; conditions: after 3 months
Source text: (§1) The detail of the assessment made in the following Experiments of the invention was as follows:
(§2) Four months after treatment, evaluation was made for inhibition of reproduction expressed in terms of symbols ranging from (-) to (+++) where (-) means no reproduction, namely complete suppression of reproduction, (±) remarkable suppression of reproduction; (+) considerable suppression of reproduction; (++) medium supprestion of reproduction; and (+++) no suppression of reproduction.
(§3) The compounds of the invention and other compounds listed in Table 5. were diluted to prescribed concentrations and sprayed onto naturally growing shrubs by foliar application in an amount of 150 liter per 10 are.
(§4) 0.1% of octylphenyl polyoxyethanol was added as the surfactant. The killing index (0, no effect; 5, death) after 1 month and 3 months, and the reproduction-inhibiting effect (-, no reproduction; +++, maximum reproduction) after 3 months were determined.

chigaya = experiment: Experiment 1 foliar application to naturally growing weeds; type: in vivo, Imperata cylindrica Beauv.; conditions: 4 months
Source text: as §1, §2
(§5) The compounds of the invention and other compounds for comparison listed in Table 3 were diluted to prescribed concentrations and sprayed to naturally growing weeds by foliar application in an amount of 150 liter per 10 are.
(§6) 0.1% of octylphenyl polyoxyethanol was added as a surfactant.
(§7) The killing index (0, no effect, 5, death) after 21 days, and the reproduction-inhibiting effect (-, no reproduction; +++, maximum reproduction) after 2 months (manna grass and cockspar grass) and 4 months (other weeds) were determined.

yabugarashi = experiment: as above; type: in vivo, Cayratia japonica Houtt.; conditions: 4 months
Source text: as §1, §2, §5, §6, §7

torch azalea = experiment: Experiment 3 foliar application to naturally growing shrubs; type: in vivo, Rhododendoron Kaempferi Planch.; conditions: after 3 months
Source text: as §1, §2, §3, §4

kiichigo = experiment: as above; type: in vivo, Rubus palmatsu Thunb. forma coptophyllus Makino; conditions: after 3 months
Source text: as §1, §2, §3, §4

eulalia = experiment: Experiment 2 foliar application in Japanese cypress afforested land; type: in vivo, Miscanthus sinensis Andress.; design: key: 0 = no effect, 5 = death
Description: as §1
(§8) The compounds of the invention and other compounds listed in Table 4. were diluted to prescribed concentrations and sprayed to shrubs by foliar application in a Japanese cypress afforested land in an amount of 150 liter per 10 are.
(§9) After 30 days and 3 months, the killing index (0, no effect; 5, death) was determined.
(§10) The heights of plants were 50-70 cm. for Japanese cypress, about 50 cm. for chestnut, 50-90 cm. for miyakozasa, about 100 cm. for eulalia and 70-100 cm. for kumaichigo, respectively.

yamazakura = experiment: Experiment 3 foliar application to naturally growing shrubs; type: in vivo, Prunus donarium Sieb. var. spontanae Makino; conditions: after 3 months
Source text: as §1, §2, §3, §4

oak = experiment: as above; type: in vivo, Quercus serrata Thunb; conditions: after 3 months
Source text: as §1, §2, §3, §4

Japanese bush cranberry = experiment: as above; type: in vivo, Viburnum dilatatum Thunb.; conditions: for Reproduction-inhibiting: after 3 months
Source text: as §1, §2, §3, §4

miyakozasa = experiment: Experiment 2 foliar application in Japanese cypress afforested land; type: in vivo, Sasa nipponica Makino et Shibata; conditions: 0.25%
Description: as §1, §8, §9, §10

warunasubi = experiment: Experiment 1 foliar application to naturally growing weeds; type: in vivo, Solanum carolinensis L.; conditions: 4 months
Source text: as §1, §2, §5, §6, §7

white clover = experiment: as above; type: in vivo, Trifolium repens L.; conditions: 4 months
Source text: as §1, §2, §5, §6, §7

manna grass = experiment: as above; type: in vivo, Digitaria adsceudes Henr.; conditions: for Reproduction-inhibiting effect: 2 months; for Killing index of Upperground parts: 21 days
Source text: as §1, §2, §5, §6, §7

cockspar grass = experiment: as above; type: in vivo, Echinochloa Crusgalli P. Beauv.; conditions: for Reproduction-inhibiting effect: 2 months; for Killing index of Upperground parts: 21 days
Source text: as §1, §2, §5, §6, §7

hedge bindweed = experiment: as above; type: in vivo, Calystegis hederacea Wall.; conditions: 4 months
Source text: as §1, §2, §5, §6, §7

Japanese prickly ash = experiment: Experiment 3 foliar application to naturally growing shrubs; type: in vivo, Xanthoxylum piperitum DC.; conditions: after 3 months
Source text: as §1, §2, §3, §4

azumanezasa = experiment: Experiment 1 foliar application to naturally growing weeds; type: in vivo, Pleioblastus Chino Makino; conditions: 4 months
Source text: as §1, §2, §5, §6, §7

purple nutsedge = experiment: as above; type: in vivo, Cyperus rotundus L.; conditions: 4 months
Source text: as §1, §2, §5, §6, §7

weeds and shrubs = conditions: background statement; cited from earlier work
kumaichigo = experiment: Experiment 2 foliar application in Japanese cypress afforested land; type: in vivo, Rubus crataegifolius Bunge; conditions: 0.125%; after 3 months
Description: as §1, §8, §9, §10

C[C@H](NC(=O)[C@H](C)NC(=O)[C@@H](N)CCP(C)(=O)O)C(=O)O [(L-2-Amino-4-methylphosphinobutyryl)-L-alanyl-L-alanine mono] [(L-2-Amino-4-methylphosphinobutyryl)-L-alanyl-L-alanine monodiethanolammonium salt]
Reproduction-inhibiting (lace shrub; 0.05%): +++ | Reproduction-inhibiting (lace shrub; 0.1%): ++ | Reproduction-inhibiting (lace shrub; 0.2%): - | Reproduction-inhibiting effect (chigaya; 0.05%): +++ | Reproduction-inhibiting effect (chigaya; 0.1%): ++ | Reproduction-inhibiting effect (chigaya; 0.2%): - | Reproduction-inhibiting effect (yabugarashi; 0.05%): +++ | Reproduction-inhibiting effect (yabugarashi; 0.1%): ++ | Reproduction-inhibiting effect (yabugarashi; 0.2%): ± | Reproduction-inhibiting (torch azalea; 0.05%): +++ | Reproduction-inhibiting (torch azalea; 0.1%): ++ | Reproduction-inhibiting (torch azalea; 0.2%): - | Reproduction-inhibiting (kiichigo; 0.05%): +++ | Reproduction-inhibiting (kiichigo; 0.1%): + | Reproduction-inhibiting (kiichigo; 0.2%): - | Killing index (eulalia; 0.25%, after 3 months): 4.5 | Killing index (eulalia; 0.25%, after 30 days): 4.5 | Reproduction-inhibiting (yamazakura; 0.05%): +++ | Reproduction-inhibiting (yamazakura; 0.1%): ++ | Reproduction-inhibiting (yamazakura; 0.2%): - | Reproduction-inhibiting (oak; 0.05%): +++ | Reproduction-inhibiting (oak; 0.1%): ++ | Reproduction-inhibiting (oak; 0.2%): - | Reproduction-inhibiting (Japanese bush cranberry; 0.05%): +++ | Reproduction-inhibiting (Japanese bush cranberry; 0.1%): + | Reproduction-inhibiting (Japanese bush cranberry; 0.2%): - | Killing index (miyakozasa; after 3 months): 4.5 | Killing index (miyakozasa; after 30 days): 4.5 | Reproduction-inhibiting effect (warunasubi; 0.05%): +++ | Reproduction-inhibiting effect (warunasubi; 0.1%): +++ | Reproduction-inhibiting effect (warunasubi; 0.2%): + | Reproduction-inhibiting effect (white clover; 0.05%): +++ | Reproduction-inhibiting effect (white clover; 0.1%): +++ | Reproduction-inhibiting effect (white clover; 0.2%): - | Reproduction-inhibiting effect (manna grass; 0.05%): +++ | Reproduction-inhibiting effect (manna grass; 0.1%): ++ | Killing index of Upperground parts (manna grass; 0.1%): 3.5 | Reproduction-inhibiting effect (manna grass; 0.2%): - | Killing index of Upperground parts (manna grass; 0.2%): 4.5 | Reproduction-inhibiting effect (cockspar grass; 0.05%): +++ | Reproduction-inhibiting effect (cockspar grass; 0.1%): ++ | Killing index of Upperground parts (cockspar grass; 0.1%): 3.5 | Reproduction-inhibiting effect (cockspar grass; 0.2%): - | Killing index of Upperground parts (cockspar grass; 0.2%): 4.5 | Reproduction-inhibiting effect (hedge bindweed; 0.05%): +++ | Reproduction-inhibiting effect (hedge bindweed; 0.1%): +++ | Reproduction-inhibiting effect (hedge bindweed; 0.2%): +++ | Reproduction-inhibiting (Japanese prickly ash; 0.05%): +++ | Reproduction-inhibiting (Japanese prickly ash; 0.1%): + | Reproduction-inhibiting (Japanese prickly ash; 0.2%): - | Reproduction-inhibiting effect (azumanezasa; 0.05%): +++ | Reproduction-inhibiting effect (azumanezasa; 0.1%): + | Reproduction-inhibiting effect (azumanezasa; 0.2%): - | Reproduction-inhibiting effect (purple nutsedge; 0.05%): +++ | Reproduction-inhibiting effect (purple nutsedge; 0.1%): +++ | Reproduction-inhibiting effect (purple nutsedge; 0.2%): +

O=C(O)CNCP(=O)(O)O [Glyphosate, N-phosphonomethylglycine]
Reproduction-inhibiting (lace shrub; 0.05%): +++ | Reproduction-inhibiting (lace shrub; 0.1%): +++ | Reproduction-inhibiting (lace shrub; 0.2%): +++ | Reproduction-inhibiting effect (chigaya; 0.05%): +++ | Reproduction-inhibiting effect (chigaya; 0.1%): ++ | Reproduction-inhibiting effect (chigaya; 0.2%): ± | Reproduction-inhibiting effect (yabugarashi; 0.05%): +++ | Reproduction-inhibiting effect (yabugarashi; 0.1%): +++ | Reproduction-inhibiting effect (yabugarashi; 0.2%): ++ | Reproduction-inhibiting (torch azalea; 0.05%): +++ | Reproduction-inhibiting (torch azalea; 0.1%): +++ | Reproduction-inhibiting (torch azalea; 0.2%): +++ | Reproduction-inhibiting (kiichigo; 0.05%): +++ | Reproduction-inhibiting (kiichigo; 0.1%): +++ | Reproduction-inhibiting (kiichigo; 0.2%): ++ | Reproduction-inhibiting (yamazakura; 0.05%): +++ | Reproduction-inhibiting (yamazakura; 0.1%): +++ | Reproduction-inhibiting (yamazakura; 0.2%): ++ | Reproduction-inhibiting (oak; 0.05%): +++ | Reproduction-inhibiting (oak; 0.1%): +++ | Reproduction-inhibiting (oak; 0.2%): +++ | Reproduction-inhibiting (Japanese bush cranberry; 0.05%): +++ | Reproduction-inhibiting (Japanese bush cranberry; 0.1%): +++ | Reproduction-inhibiting (Japanese bush cranberry; 0.2%): ++ | Killing index (Japanese bush cranberry; 0.2%, after 30 days): 1.5 | weeding effects of known herbicides in words (weeds and shrubs): not so effective for broad-leaved weeds; also recorded: poor weeding effects for broadleaved weeds and shrubs | Reproduction-inhibiting effect (warunasubi; 0.05%): +++ | Reproduction-inhibiting effect (warunasubi; 0.1%): +++ | Reproduction-inhibiting effect (warunasubi; 0.2%): + | Killing index (kumaichigo): 0.5 | Reproduction-inhibiting effect (white clover; 0.05%): +++ | Reproduction-inhibiting effect (white clover; 0.1%): ++ | Reproduction-inhibiting effect (white clover; 0.2%): + | Reproduction-inhibiting effect (manna grass; 0.05%): +++ | Reproduction-inhibiting effect (manna grass; 0.1%): ++ | Reproduction-inhibiting effect (manna grass; 0.2%): + | Reproduction-inhibiting effect (cockspar grass; 0.05%): +++ | Reproduction-inhibiting effect (cockspar grass; 0.1%): ++ | Reproduction-inhibiting effect (cockspar grass; 0.2%): + | Reproduction-inhibiting effect (hedge bindweed; 0.05%): +++ | Reproduction-inhibiting effect (hedge bindweed; 0.1%): +++ | Reproduction-inhibiting effect (hedge bindweed; 0.2%): +++ | Reproduction-inhibiting (Japanese prickly ash; 0.05%): +++ | Reproduction-inhibiting (Japanese prickly ash; 0.1%): +++ | Reproduction-inhibiting (Japanese prickly ash; 0.2%): +++ | Reproduction-inhibiting effect (azumanezasa; 0.05%): +++ | Reproduction-inhibiting effect (azumanezasa; 0.1%): ++ | Reproduction-inhibiting effect (azumanezasa; 0.2%): + | Reproduction-inhibiting effect (purple nutsedge; 0.05%): +++ | Reproduction-inhibiting effect (purple nutsedge; 0.1%): +++ | Reproduction-inhibiting effect (purple nutsedge; 0.2%): +

O=C([O-])C(F)(F)C(F)F.[Na+] [sodium 2,2,3,3-tetrafluoropropionate]
Reproduction-inhibiting (lace shrub; 0.1%): +++ | Reproduction-inhibiting (lace shrub; 0.2%): +++ | Reproduction-inhibiting (lace shrub; 0.4%): +++ | Reproduction-inhibiting (torch azalea; 0.1%): +++ | Reproduction-inhibiting (torch azalea; 0.2%): +++ | Reproduction-inhibiting (torch azalea; 0.4%): +++ | Reproduction-inhibiting (kiichigo; 0.1%): +++ | Reproduction-inhibiting (kiichigo; 0.2%): +++ | Reproduction-inhibiting (kiichigo; 0.4%): +++ | Killing index (eulalia; 0.5%, after 30 days): 4.5 | Reproduction-inhibiting (yamazakura; 0.1%): +++ | Reproduction-inhibiting (yamazakura; 0.2%): +++ | Reproduction-inhibiting (yamazakura; 0.4%): +++ | Reproduction-inhibiting (oak; 0.1%): +++ | Reproduction-inhibiting (oak; 0.2%): +++ | Reproduction-inhibiting (oak; 0.4%): +++ | Reproduction-inhibiting (Japanese bush cranberry; 0.1%): +++ | Reproduction-inhibiting (Japanese bush cranberry; 0.2%): +++ | Reproduction-inhibiting (Japanese bush cranberry; 0.4%): +++ | weeding effects of known herbicides in words (weeds and shrubs): effective for eulalia and bamboo grass; also recorded: not so effective for shrubs | Reproduction-inhibiting (Japanese prickly ash; 0.1%): +++ | Reproduction-inhibiting (Japanese prickly ash; 0.2%): +++ | Reproduction-inhibiting (Japanese prickly ash; 0.4%): +++

Source: patent US4226610A, “Herbicidal compounds, preparation thereof and herbicides containing the same” (Meiji Selka Kaisha, Ltd., priority 1978, dated 1980)
